# Where a name gives a salt, the structure may show the parent alone.
# How the values were obtained:
# Settings in all cases: 72 h
# [1] = tested on: Vero E6; test: relative viability EC50 (midpoint between 100% and the lowest measured viability); higher = less toxic
# [2] = tested on: HepG2; test: as above
# [3] = tested on: U2OS; test: as above
# [4] = tested on: Caco-2; test: as above
# [5] = tested on: Vero E6; test: drug sensitivity score (DSS) for viability; higher = more toxic; extreme values may be limits of the assay
# [6] = tested on: HepG2; test: as above
# [7] = tested on: U2OS; test: as above
# [8] = tested on: Caco-2; test: as above
# [9] = tested on: Vero E6; test: cell viability relative to DMSO; higher = less toxic
# [10] = tested on: HepG2; test: as above
# [11] = tested on: U2OS; test: as above
# [12] = tested on: Caco-2; test: as above
# [13] = tested on: Calu-3; test: relative viability EC50 (midpoint between 100% and the lowest measured viability); higher = less toxic
# [14] = tested on: Calu-3; test: drug sensitivity score (DSS) for viability; higher = more toxic; extreme values may be limits of the assay
# [15] = tested on: Calu-3; test: cell viability relative to DMSO; higher = less toxic
SMILES,relative viability EC50 [1] [µM],relative viability EC50 [2] [µM],relative viability EC50 [3] [µM],relative viability EC50 [4] [µM],drug sensitivity score [5],drug sensitivity score [6],drug sensitivity score [7],drug sensitivity score [8],cell viability ([9]; 1 nM) [%],cell viability ([9]; 10 nM) [%],cell viability ([9]; 100 nM) [%],cell viability ([9]; 1000 nM) [%],cell viability ([9]; 10000 nM) [%],cell viability ([10]; 1 nM) [%],cell viability ([10]; 10 nM) [%],cell viability ([10]; 100 nM) [%],cell viability ([10]; 1000 nM) [%],cell viability ([10]; 10000 nM) [%],cell viability ([11]; 1 nM) [%],cell viability ([11]; 10 nM) [%],cell viability ([11]; 100 nM) [%],cell viability ([11]; 1000 nM) [%],cell viability ([11]; 10000 nM) [%],cell viability ([12]; 1 nM) [%],cell viability ([12]; 10 nM) [%],cell viability ([12]; 100 nM) [%],cell viability ([12]; 1000 nM) [%],cell viability ([12]; 10000 nM) [%],relative viability EC50 [13] [µM],drug sensitivity score [14],cell viability ([15]; 1 nM) [%],cell viability ([15]; 10 nM) [%],cell viability ([15]; 100 nM) [%],cell viability ([15]; 1000 nM) [%],cell viability ([15]; 10000 nM) [%]
C/C(=N\NC(=O)[C@@H]1C(=O)NC[C@H]1c1ccccc1)c1cccc(Br)c1,> 10,> 10,> 10,> 10,0,0,0,0,96.3,97.9,94,98.2,96.4,99.4,99.8,101,103,92.4,99.9,100,103,94.1,97.5,102,97.5,104,96,101,–,–,–,–,–,–,–
CCOC(=O)N1CSC[C@H]1C(=O)O [telmesteine],–,> 10,> 10,> 10,–,0.2,0,0,–,–,–,–,–,101,109,105,90.1,88.9,97.1,100,99.2,96.4,99,109,93.6,100,90.2,95.5,> 10,0,97.9,91,94.8,107,102
CC(C)Nc1nc2cc(Cl)c(Cl)cc2n1[C@H]1O[C@@H](CO)[C@H](O)[C@@H]1O [maribavir],–,> 10,> 10,> 10,–,0,0,0,–,–,–,–,–,106,104,110,107,97.9,97.7,101,92.1,102,93.7,96.9,98.9,97.3,99.5,91,> 10,0,96.4,112,106,101,102
O=c1cc(N2CCN(c3cccc(C(F)(F)F)c3)CC2)[nH]c(=O)n1C1CCCCC1 [ML179],> 10,> 10,> 10,> 10,0,2.7,0,0,102,101,98.4,100,99.7,100,105,94.4,82.6,77.7,101,97.5,100,97.9,101,95.5,96.8,97.2,98,96.5,–,–,–,–,–,–,–
O=C1c2cc(Cl)ccc2OC2CCON12 (stereo unspecified) [seclazone],> 10,> 10,> 10,> 10,0,0,0,0,90,98.2,92.7,95.2,102,102,108,94.8,97.8,107,106,96.7,101,105,100,108,86.3,91,97.4,99.2,–,–,–,–,–,–,–
CN[C@H](CC(C)C)C(=O)N[C@H]1C(=O)N[C@@H](CC(N)=O)C(=O)N[C@H]2C(=O)N[C@H]3C(=O)N[C@H](C(=O)N[C@H](C(=O)O)c4cc(O)cc(O)c4-c4cc3ccc4O)[C@H](O)c3ccc(c(Cl)c3)Oc3cc2cc(c3O[C@@H]2O[C@H](CO)[C@@H](O)[C@H](O)[C@H]2O[C@H]2C[C@](C)(N)[C@H](O)[C@H](C)O2)Oc2ccc(cc2Cl)[C@H]1O [VANCOMYCIN HYDROCHLORIDE],> 10,> 10,> 10,> 10,0,0,0,0,98.1,99.5,98.3,98.5,104,93.7,105,105,96.4,125,99.7,95.6,97.4,101,106,80.7,92.2,94.9,99.8,100,–,–,–,–,–,–,–
NCCCNCCSP(=O)(O)O [amifostine],> 10,> 10,–,> 10,0,0,–,0,104,108,106,97.3,102,103,100,96.6,93,98.2,–,–,–,–,–,88.8,100,86.4,100,92.7,> 10,0,95.8,101,101,100,98
S=P(N1CC1)(N1CC1)N1CC1 [thiotepa],> 10,> 10,–,> 10,0,0,–,0,108,98.9,106,97.3,102,104,96.6,102,100,107,–,–,–,–,–,94.7,101,94.8,98.5,91.1,> 10,0,91.8,95.7,97.5,90.2,89.5
O=S(=O)(O)CCS [mesna],> 10,–,–,> 10,0,–,–,0,103,102,107,98.5,101,–,–,–,–,–,–,–,–,–,–,114,102,104,97.2,104,> 10,0,98.4,91.8,104,95.9,103
CC(C)=CCC/C(C)=C/CC/C(C)=C/C=C/C(C)=C/C(=O)O [peretinoin],> 10,> 10,–,> 10,0,0,–,0,101,96.1,106,93.3,104,101,94.3,90.9,103,104,–,–,–,–,–,104,98.9,101,97.9,102,> 10,0,107,104,105,114,97.6
COc1ccc(CNC(=O)/C=C/c2ccc3[nH]cc(CCN(C)C)c3c2)cc1,> 10,> 10,> 10,> 10,0,0,0,0,98.5,98,101,101,102,107,90.6,93.5,94,96.8,102,97.4,98.1,98.9,99.3,106,95,93.8,96.6,98.7,–,–,–,–,–,–,–
CC1CCN(CCCC(=O)c2ccc(F)cc2)CC1 [melperone],> 10,> 10,> 10,> 10,0,0,0,0,100,98,98.9,93,100,104,96.5,102,99.7,101,99.4,98.6,95.5,100,93.7,99.3,103,98.3,93.5,89.9,–,–,–,–,–,–,–
FC(F)(F)c1ccccc1-n1ccnc1 [TRIM],–,> 10,> 10,> 10,–,0,0,0,–,–,–,–,–,96.7,110,108,103,89.5,99.6,97.8,103,95.7,103,106,104,98.6,93.5,108,> 10,0,98.7,99.5,92.6,97,97.2
Cc1cn(C[C@H](N)C(=O)O)c(=O)n(Cc2ccsc2C(=O)O)c1=O [UBP-310],> 10,> 10,> 10,> 10,0,0,0,0,97.3,101,98.3,97.6,97.3,96.6,91.3,94.6,91.2,88.1,98.8,97.3,98.5,97,98.5,99.7,93.6,101,93,99.5,–,–,–,–,–,–,–
CCOC(=O)CC(=O)N1CCSC1COc1ccccc1OC (stereo unspecified) [moguisteine],> 10,> 10,–,> 10,0,0,–,0,99.7,101,100,105,105,93.7,97,99.2,112,104,–,–,–,–,–,98.6,98.3,96.3,105,98.4,> 10,0,99.2,103,99.3,97.6,92.8
CN(C)/N=N/c1ccc(C(=O)O)cc1 [CB-10-277],> 10,> 10,> 10,> 10,0,0,0,0,98.7,98.3,97.6,97.2,106,102,95.9,113,102,105,96.6,104,98.1,99.9,104,95.8,97.3,101,96.6,102,–,–,–,–,–,–,–
